From patent US10766899B2, “Methods for preparing substituted imidazo[4,5-b]pyrazines” (Cytokinetics, Inc., priority 2006, dated 2020) come the findings set out here.

Several values for one entry are separate records, joined by “and”; a condition that tells them apart may be missing. Identical values can stand only once.

The first assay relates to SKM MF. Description: SKM MF AC1.4: ATPase of skeletal sarcomeric proteins (actin, tropomyosin, troponin complex, myosin), PK/LDH coupled enzyme system. The class given is biochemical. To be noted: screen at pCa=6.5; † mean value, ‡ median value. The protocol: For example, test compounds can be assayed in a highly parallel fashion by using multiwell plates by placing the compounds either individually in wells or testing them in mixtures. Assay components including the target protein complex, coupling enzymes and substrates, and ATP can then be added to the wells and the absorbance or fluorescence of each well of the plate can be measured with a plate reader.
In some embodiments, the method uses a 384 well plate format and a 25 μL reaction volume. A pyruvate kinase/lactate dehydrogenase coupled enzyme system (Huang T G and Hackney D D. (1994) J Biol Chem 269(23):16493-501) can be used to measure the rate of ATP hydrolysis in each well. As will be appreciated by those in the art, the assay components are added in buffers and reagents. The incubation periods can be optimized to give adequate detection signals over the background. The assay can be done in real time giving the kinetics of ATP hydrolysis which increases the signal to noise ratio of the assay.
Actin was purified by first preparing an ether powder of cardiac muscle (Zot H G and Potter J D. (1981) Preparative Biochemistry 11:381-395) as described below. Subsequently, actin was cycled between the filamentous and soluble state through rounds of centrifugation and dialysis (Spudich J A and Watt S. (1971) J. Biol. Chem. 246:4866-4871). It was stored in the filamentous state at 4° C.
Tropomyosin was extracted from the ether powder and separated from the other proteins based on pH dependent precipitations followed by successive ammonium sulfate cuts at 53% and 65% (Smillie L B. (1981) Methods Enzymol 85 Pt B:234-41). The troponins were isolated as an intact complex of TnC, TnT, and TnI. Ether powder is extracted in a high salt buffer. Successive ammonium sulfate cuts of 30% and 45% were done; the precipitate was solubilized by dialysis into a low salt buffer and then further purified on a DEAE Toyopearl column with a 25-350 mM KCl gradient.
Just prior to screening, the actin, tropomyosin, and troponin complex are mixed together in the desired ratio (e.g., 7:1:1) to achieve maximal calcium regulation of the actin filament. The screen is conducted at a pCa=6.5. This calcium concentration is in the physiological range during muscle contraction.
To measure the generation of ADP during the reaction, a pyruvate kinase/lactate dehydrogenase/NADH coupled enzyme system (PK/LDH) is added to the actin. The myosin is kept separately. The plates are read in real time so that kinetic curves are obtained. These compounds are in DMSO and were already spotted onto the bottoms of 384 well plates at 10 to 40 μg/ml final concentration.
• 1. Obtain ˜1000 g skeletal muscle, such as rabbit skeletal muscle. • 2. Grind twice; extract with 2 L solution A for 15 min while stirring; add 4 L cold H2O, filter through gauze; dilute with cold H2O to ionic strength of 0.04, (about 10-fold); let settle for 3 h; collect precipitate at 7,000 rpm in GSA rotor for 15 min. • 3. Disperse pellet in 220 ml solution B; dialyze overnight against 6 L solution C; slowly add ˜400 ml equal volume cold distilled H2O; stir for 30 min; centrifuge at 10,000 rpm for 10 min in GSA rotor. • 4. Centrifuge supernatant at 19,000 rpm for 1 h. • 5. Dilute supernatant to ionic strength of 0.04 (˜8-fold); let myosin settle overnight; collect about 5-6 L fluffy myosin precipitate by centrifuging at 10,000 rpm for 10 min in GSA rotor. • 6. Resuspend pellet in minimal volume of solution G; dialyze overnight against 2 L solution D; centrifuge at 19,000 rpm for 2 h, in cellulose nitrate tubes; puncture tubes and separate myosin from fat and insoluble pellet. • 7. Dilute supernatant to 5-10 mg/ml and dialyze against solution E extensively, load onto DEAE-sephadex column. • 8. […]
As for “1-(ethylpropyl)-6-(methylethyl)imidazo[4,5-b]pyrazin-2-ol”, the “SKM MF AC1.4” value was determined as 29.6 µM.

As to `CC(C)(CN1CCOCC1)n1c(O)nc2ncc(Br)nc21` [6-bromo-1-(2-methyl-1-morpholinopropan-2-yl)-1H-imidazo[4,5-b]pyrazin-2-ol], the “SKM MF AC1.4” value is recorded as 16.4^‡ μM. Still for that read-out and setting: with `CCc1cnc2nc(O)n([C@@H](C)c3ccccc3)c2n1` [(S)-1-(1-phenylethyl)-6-ethyl-1H-imidazo[4,5-b]pyrazin-2-ol] the figure was 17.4 µM. `CC(C)n1c(O)nc2ncc(Br)nc21` [6-bromo-1-isopropyl-1H-imidazo[4,5-b]pyrazin-2-ol]: the “SKM MF AC1.4” value was 6.0 µM. On the same count and under the same terms, with `C/C=C\c1cnc2nc(O)n(C(C)C)c2n1` [(Z)-1-isopropyl-6-(prop-1-enyl)-1H-imidazo[4,5-b]pyrazin-2-ol] the figure was 4.6 µM; with `CCC(CC)n1c(O)nc2ncc(N(C)C)nc21` [6-(dimethylamino)-1-(pentan-3-yl)-1H-imidazo[4,5-b]pyrazin-2-ol], 2.2 µM and 2.79 µM.

Turning to `CCC(CN)n1c(O)nc2ncc(Br)nc21` (centres unmarked) [1-(1-aminobutan-2-yl)-6-bromo-1H-imidazo[4,5-b]pyrazin-2-ol], the “SKM MF AC1.4” value turned out to be 1.1 µM. In the case of `CC#Cc1cnc2nc(O)n(C(CC)CC)c2n1` [1-(pentan-3-yl)-6-(prop-1-ynyl)-1H-imidazo[4,5-b]pyrazin-2-ol], the “SKM MF AC1.4” value was over 49 µM. Same read-out and setting: with `CCC(CC)n1c(O)nc2nc3ccccc3nc21` [1-(pentan-3-yl)-1H-imidazo[4,5-b]quinoxalin-2-ol] the figure was 19.8 µM. For the molecule `CC[C@H](CO)n1c(O)nc2ncc(Br)nc21` [(R)-6-bromo-1-(1-hydroxybutan-2-yl)-1H-imidazo[4,5-b]pyrazin-2-ol], the “SKM MF AC1.4” value was determined as 1.1 µM.

As to `CCC(C(=O)N1CCOCC1)n1c(O)nc2ncc(Br)nc21` (centres unmarked) [2-(6-bromo-2-hydroxy-1H-imidazo[4,5-b]pyrazin-1-yl)-1-morpholinobutan-1-one], the “SKM MF AC1.4” value is over 49 µM. Still for that read-out and setting: the figure for `C/C=C/c1cnc2nc(O)n([C@@H](C)c3ccccc3)c2n1` [(S,E)-1-(1-phenylethyl)-6-(prop-1-enyl)-1H-imidazo[4,5-b]pyrazin-2-ol] is 1.6 µM; for `C/C=C\c1cnc2nc(O)n(C(CC)CC)c2n1` [(Z)-1-(pentan-3-yl)-6-(prop-1-enyl)-1H-imidazo[4,5-b]pyrazin-2-ol] it is 0.6 µM. Consider `COc1cnc2nc(O)n([C@@H](C)c3ccccc3)c2n1` [(S)-6-methoxy-1-(1-phenylethyl)-1H-imidazo[4,5-b]pyrazin-2-ol], for which the “SKM MF AC1.4” value was 8.8 µM.

On to `C/C=C\c1cnc2nc(O)n(C3CCCCC3)c2n1` [(Z)-1-cyclohexyl-6-(prop-1-enyl)-1H-imidazo[4,5-b]pyrazin-2-ol], for which the “SKM MF AC1.4” value stood at 6.0 µM. On the same count and under the same terms, with `CSc1cnc2nc(O)n([C@H](C)c3ccccc3)c2n1` [(R)-6-(methylthio)-1-(1-phenylethyl)-1H-imidazo[4,5-b]pyrazin-2-ol] the figure was 2.9 µM; with `CCC(COC)n1c(O)nc2ncc(Br)nc21` (centres unmarked) [6-bromo-1-(1-methoxybutan-2-yl)-1H-imidazo[4,5-b]pyrazin-2-ol], 4.9 µM; with `CC(C)=Cc1cnc2nc(O)n([C@@H](C)c3ccccc3)c2n1` [(S)-6-(2-methylprop-1-enyl)-1-(1-phenylethyl)-1H-imidazo[4,5-b]pyrazin-2-ol], 2.7 µM. The same measure, in the same setting: with `C/C=C\c1cnc2nc(O)n([C@@H](C)c3ccccc3)c2n1` [(S,Z)-1-(1-phenylethyl)-6-(prop-1-enyl)-1H-imidazo[4,5-b]pyrazin-2-ol] the figure was 1.0 µM. Same read-out and setting: the figure for `CC[C@H](C)n1c(O)nc2ncc(Br)nc21` [(S)-6-bromo-1-sec-butyl-1H-imidazo[4,5-b]pyrazin-2-ol] is 0.8 µM. In the case of `CC(C)C[C@H](CN1CCOCC1)n1c(O)nc2ncc(Br)nc21` [1-[(1R)-3-methyl-1-(morpholin-4-ylmethyl)butyl]-6-bromoimidazo[4,5-b]pyrazin-2-ol], the “SKM MF AC1.4” value is 0.5 µM. Take `CCOc1cnc2nc(O)n([C@@H](C)c3ccccc3)c2n1` [(S)-6-ethoxy-1-(1-phenylethyl)-1H-imidazo[4,5-b]pyrazin-2-ol]: the “SKM MF AC1.4” value is 10.6 µM. The same measure, in the same setting: the figure for `CC[C@@H](C)n1c(O)nc2ncc(Br)nc21` [(R)-6-bromo-1-sec-butyl-1H-imidazo[4,5-b]pyrazin-2-ol] is 1.5 µM.

Take `C[C@@H](CN1CCOCC1)n1c(O)nc2ncc(Br)nc21` [(S)-6-bromo-1-(1-morpholinopropan-2-yl)-1H-imidazo[4,5-b]pyrazin-2-ol]: the “SKM MF AC1.4” value is over 49 µM. The same measure, in the same setting: the figure for `C[C@@H](c1ccccc1)n1c(O)nc2ncc(C3=CCCCC3)nc21` [(S)-6-cyclohexenyl-1-(1-phenylethyl)-1H-imidazo[4,5-b]pyrazin-2-ol] is 31.0 µM; for “1-(ethylpropyl)-6-(1-methylvinyl)imidazo[4,5-b]pyrazin-2-ol” it is 0.6 µM. The same measure, in the same setting: the figure for `C/C=C/c1cnc2nc(O)n(C(C)C)c2n1` [(E)-1-isopropyl-6-(prop-1-enyl)-1H-imidazo[4,5-b]pyrazin-2-ol] is 7.1 µM; for `CC(C)(C)n1c(O)nc2ncc(Br)nc21` [6-bromo-1-tert-butyl-1H-imidazo[4,5-b]pyrazin-2-ol] it is 0.8 µM; for `C[C@@H](c1ccccc1)n1c(O)nc2ncc(Br)nc21` [(S)-6-bromo-1-(1-phenylethyl)-1H-imidazo[4,5-b]pyrazin-2-ol] it is 0.45 µM. On the same count and under the same terms, the figure for `C=Cc1cnc2nc(O)n([C@@H](C)c3ccccc3)c2n1` [(S)-1-(1-phenylethyl)-6-vinyl-1H-imidazo[4,5-b]pyrazin-2-ol] is 2.4 µM; for `CCC(CC)n1c(O)nc2ncc(C)nc21` [6-methyl-1-(pentan-3-yl)-1H-imidazo[4,5-b]pyrazin-2-ol] it is 0.53 µM. As for `CCC/C=C\Cc1cnc2nc(O)n([C@@H](C)c3ccccc3)c2n1` [(S,Z)-6-(hex-2-enyl)-1-(1-phenylethyl)-1H-imidazo[4,5-b]pyrazin-2-ol], the “SKM MF AC1.4” value amounted to 3.1 µM. Same read-out and setting: with `CCC(CNC)n1c(O)nc2ncc(Br)nc21` (centres unmarked) [6-bromo-1-(1-(methylamino)butan-2-yl)-1H-imidazo[4,5-b]pyrazin-2-ol] the figure was 45.7 µM; with `CSc1cnc2nc(O)n([C@@H](C)c3ccccc3)c2n1` [(S)-6-(methylthio)-1-(1-phenylethyl)-1H-imidazo[4,5-b]pyrazin-2-ol], 1.1 µM. As for `CCC(CN(C)C)n1c(O)nc2ncc(Br)nc21` (centres unmarked) [6-bromo-1-(1-(dimethylamino)butan-2-yl)-1H-imidazo[4,5-b]pyrazin-2-ol], the “SKM MF AC1.4” value is 43.8 µM.

Regarding `C/C=C/c1cnc2nc(O)n(C3CCCCC3)c2n1` [(E)-1-cyclohexyl-6-(prop-1-enyl)-1H-imidazo[4,5-b]pyrazin-2-ol], the “SKM MF AC1.4” value was determined as 6.1 µM. On the same count and under the same terms, the figure for `CCC(CC)n1c(O)nc2ncc(Cl)nc21` [6-chloro-1-(ethylpropyl)imidazo[4,5-b]pyrazin-2-ol] is 0.7 µM; for `CC[C@@H](CN1CCOCC1)n1c(O)nc2ncc(Br)nc21` [(S)-6-bromo-1-(1-morpholinobutan-2-yl)-1H-imidazo[4,5-b]pyrazin-2-ol] it is over 49 µM. The same measure, in the same setting: with `C#Cc1cnc2nc(O)n([C@H](CC)CN3CCOCC3)c2n1` [1-[(1R)-1-(morpholin-4-ylmethyl)propyl]-6-ethynylimidazo[4,5-b]pyrazin-2-ol] the figure was 0.13 µM.

Still in this assay, the particulars now being: screen at pCa=6.5; † mean value, ‡ median value; listed as 1-(1,1-dimethyl-2-morpholin-4-ylethyl)-6-bromoimidazo[4,5-b]pyrazin-2-ol.
As to `CC(C)(CN1CCOCC1)n1c(O)nc2ncc(Br)nc21` [6-bromo-1-(2-methyl-1-morpholinopropan-2-yl)-1H-imidazo[4,5-b]pyrazin-2-ol], the “SKM MF AC1.4” value was determined as 19.11 µM.

Staying with this assay, now noted: screen at pCa=6.5; † mean value, ‡ median value; listed as 6-bromo-1-(2-methyl-1-morpholinopropan-2-yl)-1H-imidazo[4,5-b]pyrazin-2(3H)-one.
Consider `CC(C)(CN1CCOCC1)n1c(O)nc2ncc(Br)nc21` [6-bromo-1-(2-methyl-1-morpholinopropan-2-yl)-1H-imidazo[4,5-b]pyrazin-2-ol], for which the “SKM MF AC1.4” value is 16.4^‡ μM.
